Tests used:
[1] = test system: V600E BRAF tumor cell lines; test: Treatment of B-RAF mutant tumor cell lines and xenograft models with MEK inhibitors (cyclin D, RB, cell cycle, proliferation); format: cell-based; conditions: tumor cell lines and xenograft models with activating B-RAF mutation (V600E BRAF)
Excerpt: Eleven cells lines, including five BRAF mutants, are characterized by their tissue of lineage and mechanism of MAPK activation, were used for the experiments described herein, and are listed in Table 2.

[2] = test system: HER2/EGFR (WT BRAF) tumors; test: Response of HER2/EGFR (WT BRAF) tumors to MEK inhibition, in vitro assays and xenograft models; format: cell-based; conditions: for effectiveness at expected target, phosphorylated MAPK: WT BRAF group compared with V600E BRAF tumors; for sensitivity of tumors with high MAPK activity under the control of activated receptors: in vitro assays and xenograft models
Excerpt: Eleven cells lines, including five BRAF mutants, are characterized by their tissue of lineage and mechanism of MAPK activation, were used for the experiments described herein, and are listed in Table 2. All the cell lines have high levels of MAPK activity.

SkMel 28 cells = test: Affymetrix U133A 2.0 gene expression time course after MEK inhibitor; format: cell-based; conditions: 50 nM
Experimental: SkMel 28 cells (a melanoma cell line with the V600E BRAF mutation) were treated with the MEK inhibitor, PD0325901 (50 nM), for 2, 8, or 24 hours, or no treatment at all (=time 0 hours). Total cellular RNA was analyzed using an Affymetrix U133A 2.0 platform. Pairwise comparisons of gene expression at each individual time point to reference sample (time 0 hours) were performed, and genes were selected using a threshold of two-fold or greater change in either direction. […] Thus, genes which changed greater than or equal to two-fold in either direction in response to PD0325901 compared to control were identified at three time points following MEK inhibition. All genes were assigned to a functional class based on biological process, according to Gene Ontology (GO) classification (FIG. 2). The number of genes changing in each functional classification was assigned a p-value based on the significance of the number of genes changing given the total number of genes changed at that time point, compared to the total number of genes in the GO functional class, and the total number of genes on the chip. An enrichment score was assigned to each functional class, and was defined as the −log 10(p-value).

[3] = test system: panel of V600E BRAF cell lines; test: Microarray (SAM) of gene expression, MEK-inhibited versus DMSO control; format: cell-based; conditions: 50 nM, 8 hours, false discovery rate 9%
Experimental: Mean expression of genes was determined for a panel of V600E BRAF cell lines in each of two conditions, MEK-inhibited (PD0325901 50 nM) or DMSO control, both at 8 hours. The panel of V600E BRAF cell lines included 5 melanoma cell lines (SkMel 1, SkMel 5, SkMel 19, SkMel 28, and MALME 3M) and two colorectal carcinoma cell lines (Colo205 and HT29).
Significance analysis of microarray (SAM) methods were used to determine the significance of difference between the two groups of genes (using a false discovery rate of 9%). […] Expression of the genes was also presented as a heatmap representation (FIG. 3B).

SkMel 5 cells = test: Quantitative RT-PCR of relative mRNA levels after MEK inhibitor; format: cell-based; conditions: 50 nM; 2, 4, 8 and 24 hrs versus time 0; SkMel 5 (V600E BRAF)
Experimental: Quantitative RT-PCR was used to determine relative levels of mRNA in cells as a function of time following exposure to the MEK inhibitor (PD0325901 50 nM). SkMel 5 cells were treated with MEK inhibitor (PD0325901 50 nM) for the times indicated (2 hrs, 4 hrs, 8 hrs, and 24 hrs). Following total RNA extraction and an in vitro reverse transcription step, synthesized cDNA was used in a PCR reaction containing pre-designed probe-primer sets purchased from Applied Biosystems and run on an ABI 7500 RT-PCR machine, using software supplied by Applied Biosystems. Relative levels of mRNA compared to the reference sample (time 0) were determined using the ΔΔCT calculation, using HPRT as a housekeeping gene for normalization. In brief, each gene for each sample is assigned a value based on the number of PCR amplification cycles required for the amplified gene product to cross a detection threshold (i.e., a gene detectable at 25 amplification cycles is present in greater starting quantity than a gene product detectable at 30 cycles). The cycle value for each sample for the gene of interest is subtracted from the cycle value for a reference sample (untreated, or time 0), and this value is the delta CT for the gene of interest. […] This is the delta CT for the housekeeping gene. The delta CT (housekeeping gene) is subtracted from the delta CT (gene of interest), and this is the delta delta CT. […]

[4] = test system: SkMel 5, SkMel 19, and Colo205; test: Western blot of relative protein expression after MEK inhibitor; format: cell-based; conditions: 50 nM, as a function of time; three V600E BRAF cell lines
Experimental: Following protein isolation using NP40 1% lysis buffer, Western blot analysis was used to determine relative protein expression in cells as a function of time following exposure to MEK inhibitor (PD0325901 50 nM). […] For the Western Blot analysis, DUSP6 antibody (SantaCruz (#8598)), and SPRY2 antibody (Upstate Cell Signaling Solutions).

[5] = test system: V600E B-RAF xenograft models of melanoma and colon carcinoma; test: Tumor growth in V600E B-RAF xenograft models; conditions: for tumor growth: compared to vehicle-treated mice, several V600E B-RAF xenograft models of melanoma and colon carcinoma; for cyclin D and Ki-67 in tumor samples: western blot and immunohistochemistry of xenograft tumor samples

SMILES | cell cycle [1] | cyclin D levels [1] | phosphorylation of RB [1] | proliferation [1] | effectiveness at expected target, phosphorylated MAPK [2] | sensitivity of tumors with high MAPK activity under the control of activated receptors [2] | number of genes changing two-fold or greater in either direction (SkMel 28 cells; 2 hours versus time 0) [genes] | number of genes changing two-fold or greater in either direction (SkMel 28 cells; 8 hours versus time 0) [genes] | number of genes changing two-fold or greater in either direction (SkMel 28 cells; 24 hours versus time 0) [genes] | genes downregulated [3] [genes] | genes upregulated [3] [genes] | genes which change significantly in either direction ([3]; 45 probe sets) [genes] | relative mRNA levels of DUSP6, SPRY2, ETV1, ETV5, and CCND1 (SkMel 5 cells) | relative protein expression of DUSP6 and SPRY2 [4] | tumor growth [5] | cyclin D and Ki-67 in tumor samples [5]
O=C(NOC[C@H](O)CO)c1ccc(F)c(F)c1Nc1ccc(I)cc1F [PD0325901] | G1 arrest | decline in cyclin D levels | hypophosphorylation of RB | inhibition of proliferation | not measurably different | resistant | 91 | 327 | 1191 | 31 | 4 | 35 | Decrease in mRNA levels | decrease in protein expression | Tumor growth delay was achieved | decline in both cyclin D and Ki-67
O=C(NOCC1CC1)c1ccc(F)c(F)c1Nc1ccc(I)cc1Cl [CI-1040] | G1 arrest | decline in cyclin D levels | hypophosphorylation of RB | inhibition of proliferation | not measurably different | resistant |  |  |  |  |  |  |  |  | Tumor growth delay was achieved | decline in both cyclin D and Ki-67
